According to PMC7588595, “Small-molecule active pharmaceutical ingredients of approved cancer therapeutics inhibit human aspartate/asparagine-β-hydroxylase” (Bioorganic & Medicinal Chemistry, 2020):

Target: T1, human AspH (His6-AspH315–758) (Homo sapiens, UniProt Q12797)
T1 construct: N-Terminally His6-tagged human AspH315–758 (His6-AspH315–758) was produced in Escherichia coli BL21 (DE3) cells; made in house; host or cells: Escherichia coli BL21 (DE3), pET-28a(+) vector
T1 sequence (Q12797 315-758): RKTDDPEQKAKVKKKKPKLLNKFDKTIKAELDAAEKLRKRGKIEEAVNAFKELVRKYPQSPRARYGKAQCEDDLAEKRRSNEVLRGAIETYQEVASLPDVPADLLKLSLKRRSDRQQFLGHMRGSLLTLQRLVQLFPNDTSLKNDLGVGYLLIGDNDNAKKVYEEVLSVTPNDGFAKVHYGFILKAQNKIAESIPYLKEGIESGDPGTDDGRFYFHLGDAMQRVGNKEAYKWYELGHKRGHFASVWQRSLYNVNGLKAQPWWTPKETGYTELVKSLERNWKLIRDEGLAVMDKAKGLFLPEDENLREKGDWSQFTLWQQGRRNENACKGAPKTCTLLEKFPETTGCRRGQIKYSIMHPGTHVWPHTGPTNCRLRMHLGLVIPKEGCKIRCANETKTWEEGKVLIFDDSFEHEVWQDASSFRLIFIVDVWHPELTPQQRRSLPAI
Test: SPE-MS AspH inhibition assay (hFX-CP101-119 substrate hydroxylation)
Assay type: biochemical
Settings: AspH-inhibitor screening; for Plate 1 (% inhibition): 384-well Plate 1; for Plate 1 (% conversion): 384-well Plate 1, substrate conversion; for Plate 1-duplicate (% conversion): substrate conversion

`Cn1cc(C[C@@H](N)C(=O)O)c2ccccc21` [1-methyl-D-tryptophan, 95%] was tested, and the “Plate 1 (% inhibition)” value was 6.32%, the “Plate 1 (% conversion)” value was 46.83% and the “Plate 1-duplicate (% inhibition)” value was 9.06%. The “Plate 1-duplicate (% conversion)” value was 47.55%.

With `COc1cc2c(cc1O)CC[C@@H]1[C@@H]2CC[C@]2(C)[C@@H](O)CC[C@@H]12` [2-methoxyestradiol (Panzem)] the “Plate 1 (% inhibition)” value was 5.63%, the “Plate 1 (% conversion)” value was 47.15% and the “Plate 1-duplicate (% inhibition)” value was 3.64%. For the same compound, the “Plate 1-duplicate (% conversion)” value was 50.24%.

`CC/C(=C(\c1ccc(O)cc1)c1ccc(OCCN(C)C)cc1)c1ccccc1` [4-hydroxytamoxifen] was tested, and the “Plate 1 (% inhibition)” value was -45.98%, the “Plate 1 (% conversion)” value was 70.98% and the “Plate 1-duplicate (% inhibition)” value was -42.66%. For the same compound, the “Plate 1-duplicate (% conversion)” value was 73.20%.

With `C=CCNC1=C2C[C@@H](C)C[C@H](OC)[C@H](O)[C@@H](C)/C=C(\C)[C@H](OC(N)=O)[C@@H](OC)/C=C\C=C(/C)C(=O)NC(=CC1=O)C2=O` [17-AAG (Tanespimycin, Geldanamycin)] the “Plate 1 (% inhibition)” value was -8.89%, the “Plate 1 (% conversion)” value was 53.86% and the “Plate 1-duplicate (% inhibition)” value was -13.53%. For the same compound, the “Plate 1-duplicate (% conversion)” value was 58.75%.

In the case of `CO[C@H]1/C=C\C=C(/C)C(=O)NC2=CC(=O)C(NCCN(C)C)=C(C[C@@H](C)C[C@H](OC)[C@H](O)[C@@H](C)/C=C(\C)[C@@H]1OC(N)=O)C2=O` [17-DMAG (Alvespimycin)], the “Plate 1 (% inhibition)” value is reported as -4.95%, the “Plate 1 (% conversion)” value is reported as 52.04% and the “Plate 1-duplicate (% inhibition)” value is reported as -6.36%. The “Plate 1-duplicate (% conversion)” value was 55.19%.

For `COc1cc(O)c2c(c1)/C=C/C[C@H](O)[C@H](O)C(=O)/C=C\C[C@H](C)OC2=O` [(5Z)-7-Oxozeaenol], the “Plate 1 (% inhibition)” value was 21.38%, the “Plate 1 (% conversion)” value was 39.88% and the “Plate 1-duplicate (% inhibition)” value was 23.66%. For the same compound, the “Plate 1-duplicate (% conversion)” value was 40.31%.

In the case of `C[C@@H](C(=O)O)c1ccc(-c2ccccc2)c(F)c1` [(R)-Flurbiprofen (Tarenflurbil)], the “Plate 1 (% inhibition)” value is reported as 10.59%, the “Plate 1 (% conversion)” value is reported as 44.86% and the “Plate 1-duplicate (% inhibition)” value is reported as 16.18%. The “Plate 1-duplicate (% conversion)” value was 44.01%.

With `CC1(C)CCC(c2ccc(Cl)cc2)=C(CN2CCN(c3ccc(C(=O)NS(=O)(=O)c4ccc(N[C@H](CCN5CCOCC5)CSc5ccccc5)c(S(=O)(=O)C(F)(F)F)c4)cc3)CC2)C1` [ABT-263 (Navitoclax)] the “Plate 1 (% inhibition)” value was 90.19%, the “Plate 1 (% conversion)” value was 8.10% and the “Plate 1-duplicate (% inhibition)” value was 90.05%. For the same compound, the “Plate 1-duplicate (% conversion)” value was 7.38%.

For `COc1ccc(S(=O)(=O)Nc2cccnc2Nc2ccc(O)cc2)cc1` [ABT-751], the “Plate 1 (% inhibition)” value was 4.88%, the “Plate 1 (% conversion)” value was 47.50% and the “Plate 1-duplicate (% inhibition)” value was 8.62%. The “Plate 1-duplicate (% conversion)” value was 47.77%.

For `Cc1ccc(F)c(NC(=O)Nc2ccc(-c3cccc4[nH]nc(N)c34)cc2)c1` [ABT-869_Linifanib], the “Plate 1 (% inhibition)” value was 24.64%, the “Plate 1 (% conversion)” value was 38.37% and the “Plate 1-duplicate (% inhibition)” value was 34.65%. For the same compound, the “Plate 1-duplicate (% conversion)” value was 34.86%.

In the case of `C[C@]1(c2nc3c(C(N)=O)cccc3[nH]2)CCCN1` [ABT-888 (Veliparib)], the “Plate 1 (% inhibition)” value is reported as 6.01%, the “Plate 1 (% conversion)” value is reported as 46.97% and the “Plate 1-duplicate (% inhibition)” value is reported as 4.15%. For the same compound, the “Plate 1-duplicate (% conversion)” value was 49.98%.

`CC(C)(C)c1cc(NC(=O)Nc2ccc(-c3cn4c(n3)sc3cc(OCCN5CCOCC5)ccc34)cc2)no1` [AC220_Quizartinib] was tested, and the “Plate 1 (% inhibition)” value was -19.26%, the “Plate 1 (% conversion)” value was 58.64% and the “Plate 1-duplicate (% inhibition)” value was -18.68%. The “Plate 1-duplicate (% conversion)” value was 61.31%.

For `CNCc1ccc(-c2[nH]c3cc(F)cc4c3c2CCNC4=O)cc1` [AG-014699_Rucaparib], the “Plate 1 (% inhibition)” value was 17.02%, the “Plate 1 (% conversion)” value was 41.89% and the “Plate 1-duplicate (% inhibition)” value was 9.37%. For the same compound, the “Plate 1-duplicate (% conversion)” value was 47.39%.

In the case of `Cc1ccc(C(=O)Nc2ccc(CN3CCN(C)CC3)c(C(F)(F)F)c2)cc1C#Cc1cnc2cccnn12` [AP24534 (Ponatinib)], the “Plate 1 (% inhibition)” value is reported as -64.76%, the “Plate 1 (% conversion)” value is reported as 79.66% and the “Plate 1-duplicate (% inhibition)” value is reported as -35.27%. The “Plate 1-duplicate (% conversion)” value was 69.54%.

With `O=C1NC(=O)[C@@H](c2cn3c4c(cccc24)CCC3)[C@@H]1c1c[nH]c2ccccc12` [ARQ 197_Tivantinib] the “Plate 1 (% inhibition)” value was -6.95%, the “Plate 1 (% conversion)” value was 52.96% and the “Plate 1-duplicate (% inhibition)” value was -13.62%. For the same compound, the “Plate 1-duplicate (% conversion)” value was 58.79%.

`Cn1cnc2c(F)c(Nc3ccc(Br)cc3F)c(C(=O)NOCCO)cc21` [ARRY-162_MEK-162] was tested, and the “Plate 1 (% inhibition)” value was -1.29%, the “Plate 1 (% conversion)” value was 50.34% and the “Plate 1-duplicate (% inhibition)” value was 1.23%. For the same compound, the “Plate 1-duplicate (% conversion)” value was 51.43%.

For `O=C(NC[C@H](O)CO)c1ccncc1Nc1ccc(I)cc1F` [AS703026_Pimasertib], the “Plate 1 (% inhibition)” value was 12.00%, the “Plate 1 (% conversion)” value was 44.21% and the “Plate 1-duplicate (% inhibition)” value was 9.34%. The “Plate 1-duplicate (% conversion)” value was 47.41%.

`O=C(Nc1c[nH]nc1-c1nc2ccc(CN3CCOCC3)cc2[nH]1)NC1CC1` [AT9283] was tested, and the “Plate 1 (% inhibition)” value was -0.09%, the “Plate 1 (% conversion)” value was 49.79% and the “Plate 1-duplicate (% inhibition)” value was 2.46%. The “Plate 1-duplicate (% conversion)” value was 50.82%.

In the case of `CN[C@@H](C)C(=O)N[C@H]1CN(C(=O)CC(C)C)CC[C@H]2CC[C@@H](C(=O)NC(c3ccccc3)c3ccccc3)N2C1=O` [AT-406], the “Plate 1 (% inhibition)” value is reported as 3.10%, the “Plate 1 (% conversion)” value is reported as 48.32% and the “Plate 1-duplicate (% inhibition)” value is reported as -2.44%. The “Plate 1-duplicate (% conversion)” value was 53.25%.

In the case of `COc1cc2nccc(Oc3ccc(NC(=O)Nc4cc(C)on4)c(Cl)c3)c2cc1OC` [AV-951 (Tivozanib)], the “Plate 1 (% inhibition)” value is reported as 11.01%, the “Plate 1 (% conversion)” value is reported as 44.66% and the “Plate 1-duplicate (% inhibition)” value is reported as 0.70%. The “Plate 1-duplicate (% conversion)” value was 51.69%.

In the case of `CC[C@H](CC#N)OC(=O)N[C@@H](C)c1cccc(NC(=O)Nc2ccc(-c3cnco3)c(OC)c2)c1` [AVN944], the “Plate 1 (% inhibition)” value is reported as -7.04%, the “Plate 1 (% conversion)” value is reported as 53.00% and the “Plate 1-duplicate (% inhibition)” value is reported as -8.24%. For the same compound, the “Plate 1-duplicate (% conversion)” value was 56.13%.

With `CCN(CCO)CCCOc1ccc2c(Nc3cc(CC(=O)Nc4cccc(F)c4)[nH]n3)ncnc2c1` [AZD1152-HQPA] the “Plate 1 (% inhibition)” value was 1.19%, the “Plate 1 (% conversion)” value was 49.20% and the “Plate 1-duplicate (% inhibition)” value was 0.26%. For the same compound, the “Plate 1-duplicate (% conversion)” value was 51.91%.

`Cc1cc(Nc2nc(N[C@@H](C)c3ncc(F)cn3)ncc2Cl)n[nH]1` [AZD1480] was tested, and the “Plate 1 (% inhibition)” value was -0.12%, the “Plate 1 (% conversion)” value was 49.81% and the “Plate 1-duplicate (% inhibition)” value was 6.11%. The “Plate 1-duplicate (% conversion)” value was 49.01%.

With `CNC(=O)c1cccc(-c2ccc3c(N4CCOC[C@@H]4C)nc(N4CCOC[C@@H]4C)nc3n2)c1` [AZD2014] the “Plate 1 (% inhibition)” value was 7.73%, the “Plate 1 (% conversion)” value was 46.18% and the “Plate 1-duplicate (% inhibition)” value was 4.94%. For the same compound, the “Plate 1-duplicate (% conversion)” value was 49.59%.

With `Cn1cnc2c(F)c(Nc3ccc(Br)cc3Cl)c(C(=O)NOCCO)cc21` [AZD6244 (Selumetinib)] the “Plate 1 (% inhibition)” value was 5.13%, the “Plate 1 (% conversion)” value was 47.38% and the “Plate 1-duplicate (% inhibition)” value was 5.57%. For the same compound, the “Plate 1-duplicate (% conversion)” value was 49.28%.

With `COc1ccc(-c2ccc3c(N4CCOC[C@@H]4C)nc(N4CCOC[C@@H]4C)nc3n2)cc1CO` [AZD8055] the “Plate 1 (% inhibition)” value was 0.34%, the “Plate 1 (% conversion)” value was 49.59% and the “Plate 1-duplicate (% inhibition)” value was 4.92%. The “Plate 1-duplicate (% conversion)” value was 49.60%.

In the case of `Cl.NC(=O)Nc1cc(-c2cccc(F)c2)sc1C(=O)N[C@H]1CCCNC1` [AZD 7762 hydrochloride], the “Plate 1 (% inhibition)” value is reported as 14.30%, the “Plate 1 (% conversion)” value is reported as 43.15% and the “Plate 1-duplicate (% inhibition)” value is reported as 4.66%. For the same compound, the “Plate 1-duplicate (% conversion)” value was 49.73%.

For `C[C@]12CC[C@H](O)CC1=CC[C@@H]1[C@@H]2CC[C@]2(C)C(c3cccnc3)=CC[C@@H]12` [Abiraterone], the “Plate 1 (% inhibition)” value was 1.80%, the “Plate 1 (% conversion)” value was 48.92% and the “Plate 1-duplicate (% inhibition)” value was 1.40%. The “Plate 1-duplicate (% conversion)” value was 51.35%.

In the case of `CN(Cc1cnc2nc(N)nc(N)c2n1)c1ccc(C(=O)N[C@@H](CCC(=O)O)C(=O)O)cc1` [Abitrexate/Methotrexate], the “Plate 1 (% inhibition)” value is reported as 8.67%, the “Plate 1 (% conversion)” value is reported as 45.75% and the “Plate 1-duplicate (% inhibition)” value is reported as 10.50%. For the same compound, the “Plate 1-duplicate (% conversion)” value was 46.84%.

For `CCc1cc2c(cc1N1CCC(N3CCOCC3)CC1)C(C)(C)c1[nH]c3cc(C#N)ccc3c1C2=O` [Alectinib], the “Plate 1 (% inhibition)” value was -0.39%, the “Plate 1 (% conversion)” value was 49.93% and the “Plate 1-duplicate (% inhibition)” value was 8.49%. The “Plate 1-duplicate (% conversion)” value was 47.83%.

In the case of `Oc1ncnc2[nH]ncc12` [Allopurinol], the “Plate 1 (% inhibition)” value is reported as -0.61%, the “Plate 1 (% conversion)” value is reported as 50.03% and the “Plate 1-duplicate (% inhibition)” value is reported as 4.67%. The “Plate 1-duplicate (% conversion)” value was 49.73%.

In the case of `CN(C)c1nc(N(C)C)nc(N(C)C)n1` [Altretamine], the “Plate 1 (% inhibition)” value is reported as 3.32%, the “Plate 1 (% conversion)” value is reported as 48.22% and the “Plate 1-duplicate (% inhibition)” value is reported as 13.59%. The “Plate 1-duplicate (% conversion)” value was 45.30%.

For `NCCCNCCSP(=O)(O)O` [Amifostine], the “Plate 1 (% inhibition)” value was 3.65%, the “Plate 1 (% conversion)” value was 48.06% and the “Plate 1-duplicate (% inhibition)” value was 5.75%. For the same compound, the “Plate 1-duplicate (% conversion)” value was 49.19%.

For `CCC1(c2ccc(N)cc2)CCC(=O)NC1=O` (stereo not shown) [Aminoglutethimide], the “Plate 1 (% inhibition)” value was 11.22%, the “Plate 1 (% conversion)” value was 44.57% and the “Plate 1-duplicate (% inhibition)” value was 9.40%. For the same compound, the “Plate 1-duplicate (% conversion)” value was 47.38%.
